The source made the active and inactive calls. The calls are words filed in the database; no cut-off is given here.
Legend:
[1] = Tmax in C57 mouse at 10 mg/kg, po; format: ADME, organism-based; design: dose 10 mg/kg, route oral; conditions: in vivo
[2] = molecular target: T1, Peroxisome proliferator-activated receptor delta (Homo sapiens) (UniProt Q03181); experiment: Binding affinity to PPARdelta
T1 sequence (whole entry): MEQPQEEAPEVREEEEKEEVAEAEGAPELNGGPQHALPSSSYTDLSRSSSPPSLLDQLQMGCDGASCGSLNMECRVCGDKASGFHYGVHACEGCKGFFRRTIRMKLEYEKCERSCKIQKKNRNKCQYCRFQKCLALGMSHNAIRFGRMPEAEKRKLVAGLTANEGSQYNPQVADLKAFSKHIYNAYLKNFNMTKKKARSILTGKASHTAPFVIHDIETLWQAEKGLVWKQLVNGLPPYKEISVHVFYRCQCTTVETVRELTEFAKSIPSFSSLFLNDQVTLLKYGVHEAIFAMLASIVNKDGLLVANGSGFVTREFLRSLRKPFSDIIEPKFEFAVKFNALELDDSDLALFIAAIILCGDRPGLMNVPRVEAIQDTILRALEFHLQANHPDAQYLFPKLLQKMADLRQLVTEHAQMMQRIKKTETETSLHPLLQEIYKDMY

[3] = molecular target: T2, Estrogen receptor (Homo sapiens) (UniProt P03372); experiment: Binding affinity to estrogen receptor
T2 sequence (whole entry): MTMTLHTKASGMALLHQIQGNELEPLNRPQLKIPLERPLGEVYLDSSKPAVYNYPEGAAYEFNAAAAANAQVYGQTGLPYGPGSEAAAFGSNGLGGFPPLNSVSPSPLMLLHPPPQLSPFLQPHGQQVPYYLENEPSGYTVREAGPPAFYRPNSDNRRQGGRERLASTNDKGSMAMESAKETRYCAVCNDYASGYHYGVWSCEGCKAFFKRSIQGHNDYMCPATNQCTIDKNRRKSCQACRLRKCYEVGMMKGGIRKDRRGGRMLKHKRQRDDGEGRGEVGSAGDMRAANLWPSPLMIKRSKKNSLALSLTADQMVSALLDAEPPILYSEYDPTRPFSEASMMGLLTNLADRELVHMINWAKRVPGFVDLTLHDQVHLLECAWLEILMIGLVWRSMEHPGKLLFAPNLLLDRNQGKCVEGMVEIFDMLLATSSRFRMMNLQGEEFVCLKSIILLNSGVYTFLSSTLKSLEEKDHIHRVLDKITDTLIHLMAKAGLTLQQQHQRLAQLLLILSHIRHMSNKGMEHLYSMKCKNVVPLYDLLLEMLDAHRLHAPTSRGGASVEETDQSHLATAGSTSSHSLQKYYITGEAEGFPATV

[4] = molecular target: T3, Oxysterols receptor LXR-alpha (Homo sapiens, UniProt Q13133)
[5] = molecular target: T3, Oxysterols receptor LXR-alpha; remark: listed apart in the source
Mus musculus = experiment: Antiatherosclerotic activity against high fat/high cholesterol fed LDLR-deficient mouse assessed as ldlr gene regulation at 0.6 mg/kg administered with diet for 7 days by Experion chip analysis; format: functional, organism-based; design: dose 0.6 mg/kg

T3 sequence (Q13133 whole entry, looked up): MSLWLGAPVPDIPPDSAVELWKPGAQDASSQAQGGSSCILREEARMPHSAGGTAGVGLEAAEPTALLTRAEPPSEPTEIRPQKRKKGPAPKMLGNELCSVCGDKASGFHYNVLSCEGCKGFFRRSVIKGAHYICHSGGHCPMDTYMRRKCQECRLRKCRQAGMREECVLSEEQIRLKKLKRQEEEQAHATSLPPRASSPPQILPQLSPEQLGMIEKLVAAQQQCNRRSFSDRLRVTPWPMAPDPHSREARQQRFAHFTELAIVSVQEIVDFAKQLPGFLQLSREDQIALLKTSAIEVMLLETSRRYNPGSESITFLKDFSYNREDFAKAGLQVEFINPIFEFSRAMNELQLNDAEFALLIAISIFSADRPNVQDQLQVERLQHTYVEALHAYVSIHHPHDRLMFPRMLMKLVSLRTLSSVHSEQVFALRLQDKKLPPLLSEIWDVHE

| SMILES | Tmax [1] [h] | Activity [2] | Activity [3] | EC50 [4] [nM] | EC50 [5] [nM] | Activity (Mus musculus) |
| --- | --- | --- | --- | --- | --- | --- |
| Cc1nc2c(C(F)(F)F)cccc2nc1-c1ccc(-c2cccc(S(C)(=O)=O)c2)cc1 | 4 | inactive | inactive | 1700 | > 1000 |  |
| O=C(O)Cc1cccc(OCCCN(Cc2cccc(C(F)(F)F)c2Cl)CC(c2ccccc2)c2ccccc2)c1 |  |  |  |  |  | Active |

Source: ChEMBL document CHEMBL1156230, “Identification of phenylsulfone-substituted quinoxaline (WYE-672) as a tissue selective liver X-receptor (LXR) agonist” (J Med Chem, 2010)
